Assay results taken from US20070015214A1, “Methods for identifying compounds for regulating muscle mass or function using prostanoid IP receptors” (The Procter & Gamble Company, priority 2005, published 2007).
Marks after values point to notes of the source that are not given here.

System: casting-induced atrophy of the tibialis anterior and medial gastrocnemius muscles
Experiment: mouse casting model of skeletal muscle atrophy
Type: in vivo
Conditions: fourteen days, casted right hind leg, male mice
Experimental: The role of the prostanoid IP receptor in vivo is investigated in the mouse casting model of skeletal muscle atrophy using the pharmacological agents carbaprostacyclin, ciprostene, beraprost and iloprost (Cayman Chemical Company, Ann Arbor, Mich.) which are selective agonists for the prostanoid IP receptor. Eight mice are used per treatment group in the study described. Following casting of the right hind leg, male mice are injected subcutaneously in the midscapular region once daily, with either carbaprostacyclin, ciprostene, beraprost, iloprost or vehicle control (phosphate buffered saline), for fourteen days at the daily delivered dose indicated. On day fourteen, the tibialis anterior and medial gastrocnemius muscles are removed and weighed to determine the degree of atrophy. Percent inhibition of atrophy is calculated using the following formula: [formula] Statistical significance of the results is determined using ANCOVA (Douglas C. Montgomery, Design and Analysis of Experiments, John Wiley and Sons, New York (2nd ed. 1984).

[1] = 0.3 mg/kg/d subcutaneously once daily
[2] = 1.0 mg/kg/d subcutaneously once daily
[3] = 3.0 mg/kg/d subcutaneously once daily

CCCCC[C@H](O)/C=C/[C@H]1[C@H](O)C[C@]2(C)C/C(=C\CCCC(=O)O)C[C@H]12 [Ciprostene]
% inhibition of atrophy medial gastrocnemius muscle [1]: 25* % | % inhibition of atrophy tibialis anterior muscle [1]: 5% | % inhibition of atrophy medial gastrocnemius muscle [2]: 20% | % inhibition of atrophy tibialis anterior muscle [2]: 9% | % inhibition of atrophy medial gastrocnemius muscle [3]: 43* % | % inhibition of atrophy tibialis anterior muscle [3]: 25* %

CCCCC[C@H](O)/C=C/[C@@H]1[C@H]2C/C(=C/CCCC(=O)O)C[C@H]2C[C@H]1O [Carbaprostacyclin]
% inhibition of atrophy medial gastrocnemius muscle [1]: 1% | % inhibition of atrophy tibialis anterior muscle [1]: 0% | % inhibition of atrophy medial gastrocnemius muscle [2]: 24* % | % inhibition of atrophy tibialis anterior muscle [2]: 12% | % inhibition of atrophy medial gastrocnemius muscle [3]: 43* % | % inhibition of atrophy tibialis anterior muscle [3]: 8%

CC#CCC(C)[C@H](O)/C=C/[C@@H]1[C@H]2C/C(=C/CCCC(=O)O)C[C@H]2C[C@H]1O (stereo partly drawn) [Iloprost]
% inhibition of atrophy medial gastrocnemius muscle [1]: 42* % | % inhibition of atrophy tibialis anterior muscle [1]: 18% | % inhibition of atrophy medial gastrocnemius muscle [2]: 36* % | % inhibition of atrophy tibialis anterior muscle [2]: 21* % | % inhibition of atrophy medial gastrocnemius muscle [3]: 31* % | % inhibition of atrophy tibialis anterior muscle [3]: 11%

CC#CCC(C)[C@H](O)/C=C/[C@@H]1[C@H]2c3cccc(CCCC(=O)O)c3O[C@H]2C[C@H]1O (mixture of isomers) [Beraprost]
% inhibition of atrophy medial gastrocnemius muscle [1]: 46* % | % inhibition of atrophy tibialis anterior muscle [1]: 28* % | % inhibition of atrophy medial gastrocnemius muscle [2]: 22% | % inhibition of atrophy tibialis anterior muscle [2]: 27* % | % inhibition of atrophy medial gastrocnemius muscle [3]: 28* % | % inhibition of atrophy tibialis anterior muscle [3]: 5%
